Measurements published in article PMC2857410 (The Journal of neuroscience : the official journal of the …, 2009).

Columns and labels:
[1] = biological target: homomeric α7-nAChR (Xenopus oocytes) (Rattus norvegicus, UniProt Q05941); assay: two-electrode voltage clamp, agonist-induced current; assay type: cell-based; conditions: 10 mM, 2 s exposure, -70 mV, pH 7.5
[2] = biological target: heteromeric α7β2-nAChR (Xenopus oocytes) (Rattus norvegicus, UniProt P12390+Q05941); assay: as above; assay type: cell-based; conditions: 10 mM, 2 s exposure, -70 mV, pH 7.5
heteromeric α7β2-nAChR (Xenopus oocytes), sequence (Q05941 23-502): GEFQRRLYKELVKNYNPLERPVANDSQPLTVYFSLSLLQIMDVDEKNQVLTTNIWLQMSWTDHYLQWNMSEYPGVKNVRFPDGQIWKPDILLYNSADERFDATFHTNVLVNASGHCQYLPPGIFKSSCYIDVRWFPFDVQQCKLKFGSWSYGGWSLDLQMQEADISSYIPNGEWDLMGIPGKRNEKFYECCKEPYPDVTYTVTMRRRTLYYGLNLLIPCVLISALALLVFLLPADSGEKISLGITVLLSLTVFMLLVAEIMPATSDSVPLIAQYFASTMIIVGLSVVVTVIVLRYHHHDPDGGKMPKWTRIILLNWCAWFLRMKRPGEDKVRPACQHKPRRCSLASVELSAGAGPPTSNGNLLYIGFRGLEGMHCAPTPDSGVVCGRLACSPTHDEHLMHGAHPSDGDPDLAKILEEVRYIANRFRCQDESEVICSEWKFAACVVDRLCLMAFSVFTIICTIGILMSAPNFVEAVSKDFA
heteromeric α7β2-nAChR (Xenopus oocytes), sequence (P12390 25-500): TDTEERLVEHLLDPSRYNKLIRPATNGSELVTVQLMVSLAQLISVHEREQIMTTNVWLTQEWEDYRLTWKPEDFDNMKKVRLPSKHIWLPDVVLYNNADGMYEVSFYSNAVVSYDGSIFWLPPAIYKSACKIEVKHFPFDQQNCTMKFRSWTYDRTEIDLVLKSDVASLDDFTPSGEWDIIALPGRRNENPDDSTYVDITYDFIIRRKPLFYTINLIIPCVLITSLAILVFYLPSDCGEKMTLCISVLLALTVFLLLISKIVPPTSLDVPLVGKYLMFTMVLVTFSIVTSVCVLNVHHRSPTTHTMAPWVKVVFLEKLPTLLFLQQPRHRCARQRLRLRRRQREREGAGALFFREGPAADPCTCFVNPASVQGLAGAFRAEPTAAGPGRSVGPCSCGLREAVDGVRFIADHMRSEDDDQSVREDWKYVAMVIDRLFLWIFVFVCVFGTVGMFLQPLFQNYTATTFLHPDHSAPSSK

homomeric α7-nAChR (Xenopus oocytes), sequence (Q05941 23-502): as the sequence (Q05941 23-502) above

C[N+](C)(C)CCO [choline]
two-electrode voltage clamp, agonist-induced current [1]: oocytes injected with rat α7-nAChR subunit cRNA alone
two-electrode voltage clamp, agonist-induced current [2]: exhibited smaller peak current responses to choline and slower current decay rates
